Test: Toxicity against Artemia salina
Type: organism-based
Conditions: in vivo, read-out: LD50 (the source's name)

Row | Structure (SMILES) | LC50
1 | C[C@H]1CCCCCCCN(CCCn2cc(-c3c(O)c(O)cc4ncccc34)c(-c3c(O)c(O)cc4ncccc34)c2)C1 [ISOHALITULIN] | 900 µM
2 | C[C@H]1CCCCCCCN2C=[N+](CCC2)C1 [HALICLORENSIN B] | 2200 µM
3 | C[C@H]1CCCCCCCCCCCCCNC1 [HALICLORENSIN C] | 2100 µM

Source: ChEMBL document CHEMBL1153721, “Isohalitulin and haliclorensins B and C, three marine alkaloids from Haliclona tulearensis” (J Nat Prod, 2010)
